Data: paper PMC8385029 (Scientific Reports, 2021)

T1: SyAcnB (Synechocystis sp. PCC 6803 aconitase B) (Synechocystis sp. PCC 6803, UniProt P74582)
T1 construct: gene acnB; full-length, synthetic gene in pGEX6P-1 (BamHI-XhoI), GST tag (elution with glutathione, no cleavage described), E. coli DH5alpha
T1 sequence (P74582 1-868): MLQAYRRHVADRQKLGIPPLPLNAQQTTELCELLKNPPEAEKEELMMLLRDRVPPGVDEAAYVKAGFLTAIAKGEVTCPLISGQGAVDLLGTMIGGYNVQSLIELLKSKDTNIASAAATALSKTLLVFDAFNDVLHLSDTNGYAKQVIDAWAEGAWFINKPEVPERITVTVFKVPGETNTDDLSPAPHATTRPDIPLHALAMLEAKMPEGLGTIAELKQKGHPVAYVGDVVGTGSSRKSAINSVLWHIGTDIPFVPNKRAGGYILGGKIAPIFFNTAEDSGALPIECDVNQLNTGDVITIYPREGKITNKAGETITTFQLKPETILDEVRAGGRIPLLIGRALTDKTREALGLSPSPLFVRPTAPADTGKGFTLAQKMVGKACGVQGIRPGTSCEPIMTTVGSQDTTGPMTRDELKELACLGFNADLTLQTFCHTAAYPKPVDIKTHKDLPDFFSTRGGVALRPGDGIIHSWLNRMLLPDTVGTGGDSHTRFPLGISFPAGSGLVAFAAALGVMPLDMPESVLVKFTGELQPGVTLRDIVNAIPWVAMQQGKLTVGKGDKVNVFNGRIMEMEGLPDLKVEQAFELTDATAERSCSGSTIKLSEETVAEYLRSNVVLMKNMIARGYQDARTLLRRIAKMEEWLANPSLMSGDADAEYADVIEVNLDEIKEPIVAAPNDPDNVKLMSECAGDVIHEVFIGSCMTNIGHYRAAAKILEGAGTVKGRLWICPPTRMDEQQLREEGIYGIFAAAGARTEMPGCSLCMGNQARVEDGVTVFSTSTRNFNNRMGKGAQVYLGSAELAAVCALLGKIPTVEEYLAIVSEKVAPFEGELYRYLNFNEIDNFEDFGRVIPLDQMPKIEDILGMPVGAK

B1: SyAcnB (Synechocystis sp. PCC 6803 aconitase B) (Synechocystis sp. PCC 6803 substr. Kazusa) (protein)
chain: T1 sequence (P74582 1-868)
notes: full-length, synthetic gene in pGEX6P-1 (BamHI-XhoI), GST tag (elution with glutathione, no cleavage described), E. coli DH5alpha

Tests used:
[1] = target: T1, SyAcnB (Synechocystis sp. PCC 6803 aconitase B); assay: cis-aconitate formation, A240; format: biochemical; details: read-out: % residual activity at 5 mM
purified protein = substrate: O=C(O)CC(O)(CC(=O)O)C(=O)O; assay: purified protein; details: Tris-HCl pH 7.7, 45 °C; reactivated holo-enzyme
[2] = substrate: O=C(O)CC(C(=O)O)C(O)C(=O)O; assay: cis-aconitate formation, A240; format: biochemical, Synechocystis sp. PCC 6803; details: Tris-HCl pH 8.0, 53 °C; reactivated holo-enzyme; DL-isocitrate used

| Molecule | remaining activity at 5000 µM [1] | other results |
| --- | --- | --- |
| NC(=O)CC[C@H](N)C(=O)O [L-glutamine] | 81% | – |
| CC(=O)C(=O)O [pyruvate] | 69% | – |
| N[C@@H](CC(=O)O)C(=O)O [L-aspartate] | 84% | – |
| O=C(O)CCC(=O)C(=O)O [2-OG] | 72% | – |
| N[C@@H](CCC(=O)O)C(=O)O [L-glutamate] | 85% | – |
| B1 | – | Km (purified protein): 1130 ± 40 µM; kcat (purified protein): 9.12 ± 0.14 s⁻¹; Km [2]: 1540 ± 170 µM; kcat [2]: 16.67 ± 0.34 s⁻¹ |
